SMILES strings stand for the structures.

In the first assay the target is T1, human LPA1 (Homo sapiens, UniProt Q92633).
T1 construct: expressed in transfected cells; host or cells: Chinese hamster ovary (CHO) cells
T1 sequence (Q92633 whole entry): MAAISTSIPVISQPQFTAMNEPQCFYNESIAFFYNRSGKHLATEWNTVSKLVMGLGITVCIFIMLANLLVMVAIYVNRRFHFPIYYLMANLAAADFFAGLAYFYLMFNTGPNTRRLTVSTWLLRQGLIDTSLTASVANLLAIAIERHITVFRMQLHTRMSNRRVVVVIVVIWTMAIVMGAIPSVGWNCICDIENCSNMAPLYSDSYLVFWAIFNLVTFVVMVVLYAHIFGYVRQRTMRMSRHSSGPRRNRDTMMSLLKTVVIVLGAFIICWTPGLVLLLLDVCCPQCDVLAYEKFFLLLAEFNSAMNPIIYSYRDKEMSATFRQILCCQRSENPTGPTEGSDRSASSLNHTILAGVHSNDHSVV
The experiment in a line: LPA1 functional antagonist assay (calcium flux). It counts as cell-based. As to conditions: CHO cells overexpressing human LPA1; calcium flux induced by 10 nM LPA; read-out: hLPA1 IC50. How it is done: The effectiveness of compounds of the present invention as LPA1 inhibitors can be determined in an LPA1 functional antagonist assay as follows:
The cells were then equilibrated to room temperature for 30 minutes before the assay. […] IC50 values were determined by fitting data to a 4-parameter logistic equation (GraphPad Prism, San Diego Calif.).
A general note: A change in cytosolic calcium serves as a functional read-out for many receptors and channels.
As usually defined, the IC50 is the concentration at which inhibition is half-maximal. For the compound `CC(C)CCOC(=O)NCc1c(-c2ccc(O[C@@H]3CCC[C@@H](C(=O)O)C3)cc2)nnn1C` (racemic) [Example 4, (±)-(trans)-3-(4-(5-((((isopentyloxy)carbonyl)amino)methyl)-1-methyl-1H-1,2,3-triazol-4-yl)phenoxy)cyclohexane-1-carboxylic acid], the IC50 is 148 nM.

Take `CCC(NC(=O)NCc1c(-c2ccc(O[C@H]3CCC[C@H](C(=O)O)C3)c(C)n2)nnn1C)c1ccccc1` (mixture of isomers) [Example 120, (1S,3S)-3-((2-methyl-6-(1-methyl-5-((3-(1-phenylpropyl)ureido)methyl)-1H-1,2,3-triazol-4-yl)pyridin-3-yl)oxy)cyclo-hexane-1-carboxylic acid]: the IC50 is 238 nM.

With `Cc1nc(-c2nnn(C)c2NC(=O)OC2CCCC2)ccc1O[C@H]1CCC[C@H](C(=O)O)C1` [Example 66, (1S,3S)-3-((6-(5-(((cyclopentyloxy)carbonyl)amino)-1-methyl-1H-1,2,3-triazol-4-yl)-2-methylpyridin-3-yl)oxy)cyclohexane-1-carboxylic acid], the IC50 is 68 nM.

As to `Cc1nc(-c2nnn(C)c2CNC(=O)N(C)CC(C)C)ccc1O[C@H]1CCC[C@H](C(=O)O)C1` [Example 128, (1S,3S)-3-((6-(5-((3-isobutyl-3-methylureido)methyl)-1-methyl-1H-1,2,3-triazol-4-yl)-2-methylpyridin-3-yl)oxy)cyclohexane-1-carboxylic acid], the IC50 stood at 273 nM.

For `Cc1nc(-c2nnn(C)c2CNC(=O)N(C)C(C)(C)C)ccc1O[C@H]1CCC[C@H](C(=O)O)C1` [Example 133, (1S,3S)-3-((6-(5-((3-(tert-butyl)-3-methylureido)methyl)-1-methyl-1H-1,2,3-triazol-4-yl)-2-methylpyridin-3-yl)oxy)cyclohexane-1-carboxylic acid], the IC50 amounted to 1090 nM.

Take `Cc1nc(-c2nnn(C)c2CNC(=O)N(C)Cc2ccccc2)ccc1O[C@H]1CCC[C@H](C(=O)O)C1` [Example 109, (1S,3S)-3-((6-(5-((3-benzyl-3-methyl-ureido)methyl)-1-methyl-1H-1,2,3-triazol-4-yl)-2-methylpyridin-3-yl)oxy)cyclohexanecarboxylic acid]: the IC50 was 85 nM.

With `CC(COC(=O)NCc1c(-c2ccc(O[C@H]3CCC[C@H](C(=O)O)C3)cn2)nnn1C)CC(F)(F)F` (mixture of isomers) [Example 31, (1S,3S)-3-((6-(1-methyl-5-((((4,4,4-trifluoro-2-methylbutoxy)carbonyl)amino)methyl)-1H-1,2,3-triazol-4-yl)pyridin-3-yl)oxy)cyclohexanecarboxylic acid], the IC50 was 102 nM.

As to `COCc1nc(-c2nnn(C)c2CNC(=O)OCc2ccccc2)ccc1O[C@H]1CCC[C@H](C(=O)O)C1` [Example 102, (1S,3S)-3-((6-(5-((((benzyloxy)carbonyl)amino)methyl)-1-methyl-1H-1,2,3-triazol-4-yl)-2-(methoxy-methyl)pyridin-3-yl)oxy)cyclohexane-1-carboxylic acid], the IC50 came to 30 nM.

With `Cc1nc(-c2nnn(C)c2CNS(=O)(=O)N(C)CC2CCCC2)ccc1O[C@H]1CCC[C@H](C(=O)O)C1` [Example 137, (1S,3S)-3-((6-(5-(((N-(cyclopentylmethyl)-N-methylsulfamoyl)amino)methyl)-1-methyl-1H-1,2,3-triazol-4-yl)-2-methylpyridin-3-yl)oxy)cyclohexane-1-carboxylicacid], the IC50 stood at 167 nM.

Regarding `Cc1nc(-c2nnn(C)c2CNC(=O)OCCc2ccccc2)ccc1O[C@H]1CCC[C@H](C(=O)O)C1` [Example 16, (1S,3S)-3-((2-methyl-6-(1-methyl-5-(((phenethoxycarbonyl)amino)methyl)-1H-1,2,3-triazol-4-yl)pyridin-3-yl)oxy)cyclohexane-1-carboxylic acid], the IC50 was 32 nM.

`Cc1nc(-c2nnn(C)c2NC(=O)NCc2ccccc2)ccc1O[C@H]1CCC[C@H](C(=O)O)C1` [Example 135, (1S,3S)-3-((6-(5-(3-benzylureido)-1-methyl-1H-1,2,3-triazol-4-yl)-2-methylpyridin-3-yl)oxy)cyclohexane-1-carboxylic acid]: the IC50 is 329 nM.

As for `CCC(C)CNC(=O)NCc1c(-c2ccc(O[C@H]3CCC[C@H](C(=O)O)C3)c(C)n2)nnn1C` (mixture of isomers) [Example 118, (1S,3S)-3-((2-methyl-6-(1-methyl-5-((3-(2-methylbutyl)ureido)methyl)-1H-1,2,3-triazol-4-yl)pyridin-3-yl)oxy)cyclo-hexane-1-carboxylic acid], the IC50 was found to be 105 nM.

Turning to `CCC1(COC(=O)NCc2c(-c3ccc(O[C@H]4CCC[C@H](C(=O)O)C4)c(C)n3)nnn2C)CCC1` [Example 57, (1S,3S)-3-((6-(5-(((((1-ethylcyclobutyl)methoxy)carbonyl)amino)methyl)-1-methyl-1H-1,2,3-triazol-4-yl)-2-methylpyridin-3-yl)oxy)cyclohexane-1-carboxylic acid], the IC50 was 68 nM.

On to `CCOCCOC(=O)NCc1c(-c2ccc(O[C@H]3CCC[C@H](C(=O)O)C3)c(C)n2)nnn1C` [Example 56, (1S,3S)-3-((6-(5-((((2-ethoxyethoxy)carbonyl)amino)methyl)-1-methyl-1H-1,2,3-triazol-4-yl)-2-methyl-pyridin-3-yl)oxy)cyclohexane-1-carboxylic acid], for which the IC50 came to 885 nM.

For the compound `CCC(CC)OC(=O)Nc1c(-c2ccc(O[C@H]3CCC[C@H](C(=O)O)C3)c(C)n2)nnn1C` [Example 142, (1S,3S)-3-((2-methyl-6-(1-methyl-5-(((pentan-3-yloxy)carbonyl)amino)-1H-1,2,3-triazol-4-yl)pyridin-3-yl)oxy)cyclohexane-1-carboxylic acid], the IC50 was determined as 30 nM.

The assay is the same for the next values; noted with them: human LPA1 functional antagonist assay; read-out: hLPA1 IC50.
For `Cc1nc(-c2nnn(C)c2CN(C)C(=O)OCC(C)C)ccc1O[C@H]1CCC[C@H](C(=O)O)C1` [Example 203, (1S,3S)-3-((6-(5-(((isobutoxy-carbonyl)(methyl)amino)methyl)-1-methyl-1H-1,2,3-triazol-4-yl)-2-methylpyridin-3-yl)oxy)cyclo-hexane-1-carboxylic acid], the IC50 was 91 nM.

Consider `CC[C@@H](C)OC(=O)NCc1c(-c2ccc(O[C@H]3CCC[C@H](C(=O)O)C3)c(C)n2)nnn1C` [Example 172, (1S,3S)-3-((6-(5-((((R)-sec-butoxycarbonyl)amino)methyl)-1-methyl-1H-1,2,3-triazol-4-yl)-2-methyl-pyridin-3-yl)oxy)cyclohexane-1-carboxylic acid], for which the half-inhibitory concentration (IC50) turned out to be 152 nM.

Take `Cc1nc(-c2nnn(C)c2CNC(=O)OCC2CC2C)ccc1O[C@H]1CCC[C@H](C(=O)O)C1` (stereo partly drawn) [Example 179, (1S,3S)-3((2-methyl-6-(1-methyl-5-(((((2-methylcyclopropyl)methoxy)carbonyl)amino)methyl)-1H-1,2,3-triazol-4-yl)pyridin-3-yl)oxy)cyclohexane-1-carboxylic acid]: the IC50 was found to be 46 nM.

With `Cc1nc(-c2nnn(C)c2CNC(=O)OCC(C)C2CC2)ccc1O[C@H]1CCC[C@H](C(=O)O)C1` (stereo partly drawn) [Example 184, (1S,3S)-3-((6-(5-((((2-cyclopropylpropoxy)carbonyl)amino)methyl)-1-methyl-1H-1,2,3-triazol-4-yl)-2-methylpyridin-3-yl)oxy)cyclo-hexane-1-carboxylic acid], the IC50 was 41 nM.

Consider `Cc1nc(-c2nnn(C)c2CNC(=O)OCCCC(F)(F)F)ccc1O[C@H]1CCC[C@H](C(=O)O)C1` [Example 169, (1S,3S)-3-((2-methyl-6-(1-methyl-5-((((4,4,4-trifluorobutoxy)carbonyl)amino)methyl)-1H-1,2,3-triazol-4-yl)pyridin-3-yl)oxy)cyclohexane-1-carboxylic acid], for which the IC50 was 55 nM.

The test system of a further assay is IPF patients.
Test: not given
Conditions: 26-week clinical trial in IPF patients; cited from earlier work.
Take `Cc1noc(-c2ccc(-c3ccc(C4(C(=O)O)CC4)cc3)cc2)c1NC(=O)O[C@H](C)c1ccccc1` [BMS-986020]: the “rate of FVC (forced vital capacity) decline” value is recorded as “significantly reduce”.

A further assay has as its system pancreatic cancer cell lines.
Test: not given
As to conditions: in response to LPA and peritoneal fluid (ascites) from pancreatic cancer patients; cited from earlier work.
With `Cc1noc(-c2ccc(CSCCC(=O)O)cc2)c1NC(=O)OC(C)c1ccccc1Cl` (stereo not drawn) [Ki16425], the in vitro migration entry is recorded as “effectively blocked”.

Another assay deals with nerve-injured mice.
Test: not given
As to conditions: pretreatment; cited from earlier work.
For the compound `C[C@@H](N)[C@H]1CC[C@H](C(=O)Nc2ccncc2)CC1` [Example Y-27632], the allodynia and hyperalgesia result is recorded as “completely abolished”.

A further assay has as its system UUO mice.
Test: not given
As to conditions: cited from earlier work.
Turning to `Cc1noc(-c2ccc(CSCCC(=O)O)cc2)c1NC(=O)OC(C)c1ccccc1Cl` (stereo not drawn) [Ki16425], the “development of renal fibrosis” value was “closely resembled the profile of LPA1 (−/−) mice”.

Another assay has as its system highly peritoneal metastatic pancreatic cancer cell line.
Test: not given
Conditions: LPA-induced and ascites-induced; cited from earlier work.
As for `Cc1noc(-c2ccc(CSCCC(=O)O)cc2)c1NC(=O)OC(C)c1ccccc1Cl` (stereo not drawn) [Ki16425], the invasion activity entry was “blocked”.

A further assay has as its system human foetal lung fibroblasts.
Test: not given
Conditions: induced by BAL obtained from IPF patients; cited from earlier work.
With `Cc1noc(-c2ccc(CSCCC(=O)O)cc2)c1NC(=O)OC(C)c1ccccc1Cl` (stereo not drawn) [Ki16425], the “chemotaxis of human foetal lung fibroblasts” value is recorded as “blocked”.

The next assay deals with mouse epithelial renal cell line, MCT.
Test: not given
Conditions: LPA treatment of MCT cells, co-treatment; cited from earlier work.
Consider `Cc1noc(-c2ccc(CSCCC(=O)O)cc2)c1NC(=O)OC(C)c1ccccc1Cl` (stereo not drawn) [Ki16425], for which the “induction of CTGF expression” value is “almost completely suppressed”.
